Test results: paper PMC5835975, “[^64Cu]NOTA-pentixather enables high resolution PET imaging of CXCR4 expression in a preclinical lymphoma model” (EJNMMI Radiopharmacy and Chemistry, 2017)
Where two headings read alike, the source gives them in different places. Where a SMILES comes first, the peptide text is derived from it. Side-chain parts run from the residue outwards. [ ]: non-standard residue; d: D form. The star is where a group is joined. NODAGA = O=C(O)CN1CCN(CC(=O)O)CCN(C(CCC(=O)*)C(=O)O)CC1; NOTA = O=C(O)CN1CCN(CC(=O)O)CCN(CC(=O)*)CC1; dTyr(3-I) = N[C@H](Cc1ccc(O)c(I)c1)C(=O)O; 2Nal = N[C@@H](Cc1ccc2ccccc2c1)C(=O)O; dNMeOrn = CN[C@H](CCCN)C(=O)O; 4Amb = NCc1ccc(C(=O)O)cc1

Experiments:
[1] = molecular target: T1, human CXCR4 (Homo sapiens, UniProt P61073); test: Competitive binding assay on Jurkat T-cell leukemia cells with [^125I]FC131 as radioligand; conditions: Jurkat cells 400.000 cells/sample, [^125I]FC131 radioligand, mean ± SD, min. three determinations
T1 construct: CXCR4-expressing Jurkat T-lymphocytes (4 × 10^5 cells per sample); endogenous in cells; host or cells: Jurkat T-cell leukemia cells
T1 sequence (P61073 whole entry): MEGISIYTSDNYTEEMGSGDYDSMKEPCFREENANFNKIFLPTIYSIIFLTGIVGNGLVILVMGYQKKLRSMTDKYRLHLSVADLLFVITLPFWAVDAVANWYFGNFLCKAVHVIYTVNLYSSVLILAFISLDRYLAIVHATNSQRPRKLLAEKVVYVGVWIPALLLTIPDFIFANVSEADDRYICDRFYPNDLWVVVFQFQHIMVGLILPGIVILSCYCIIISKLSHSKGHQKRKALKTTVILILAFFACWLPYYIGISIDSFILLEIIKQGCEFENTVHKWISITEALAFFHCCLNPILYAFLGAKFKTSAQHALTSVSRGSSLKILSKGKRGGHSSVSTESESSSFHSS
Protocol: The CXCR4 affinities of [^natCu]NOTA- and [^natCu]NODAGA-pentixather as well as of the corresponding metal free chelator-conjugated peptides were determined in a competitive binding assay using standard conditions (CXCR4-expressing Jurkat T-lymphocytes (4 × 10^5 cells per sample) and [^125I]FC131 as the radioligand (Poschenrieder et al. [2016a]; Wester et al. [2015]; Schottelius et al. [2015]; Poschenrieder et al. [2016b])) (Table 1). Data for [^natGa]pentixafor and FC131 are included as a reference. As already observed for [^natGa]pentixafor, metal complexation leads to enhanced CXCR4 affinity, both for [^natCu]NOTA-pentixather and for [^natCu]NODAGA-pentixather.
CXCR4 affinities were determined using Jurkat T-cell leukemia cells and [^125I]FC131 as the radioligand (Poschenrieder et al. [2016b]). Briefly, cells (4 × 10^5 cells per vial) were incubated with app. 0.1 nM of [^125I]FC131 in the presence of varying concentrations (10^−11 to 10^−5 M) of the respective peptide of interest (n = 3 samples/concentration) for 120 min at RT. After centrifugation and repeated washing steps, the amount of free and bound radioligand were quantified for each sample using a γ-counter, and IC50 values were calculated using GraphPad Prism 6.01 software.

[2] = format: physicochemical; conditions: buffer, 24 h, pH 2.5
Protocol: To investigate the in vitro stability of [^64Cu]NOTA-pentixather, the tracer was incubated both in human serum at 37 °C and in 0.1 M EDTA at pH = 2.5 and physiological pH (7.4) at RT for different time points up to 24 h (Fig. 7). [^64Cu]NOTA-pentixather remained stable over 24 h in human serum (>99% intact ^64Cu-chelate).
Fig. 7 In vitro stability of [^64Cu]NOTA-pentixather as a function of incubation time.
For challenging experiments, 4 MBq of [^64Cu]NOTA-pentixather were incubated in 0.1 M EDTA at different pH values (2.5 and 7.4) for a minimum of 24 h. At specific time points, samples were analyzed via radio-TLC using silica gel impregnated chromatography paper (Agilent Technologies, CA, USA) and 0.1 M phosphate buffer (pH = 7.4) containing 10 mM sodium EDTA as the mobile phase.

[3] = parameters: species or system mice; conditions: mouse, in vivo, iv
Protocol: (§1) Biodistribution data of [^64Cu]NOTA-pentixather at 1.5 h p.i. (n = 5, black bars) and 24 h p.i. Given the fact that Jurkat cells, which are generally used for the determination of CXCR4 affinity, are not tumorigenic in mice and to ensure comparability of data with previous studies (Poschenrieder et al. [2016a]; Wester et al. [2015]; Schottelius et al. [2015]), the Daudi lymphoma model was also used in this study. […] While the tumor-to-background ratios for most tissues remain unchanged or decrease within the observation period, t/blood and t/intestine ratios increase 1.3 and 2.4 fold between 1.5 and 24 h p.i., respectively.
(§2) Fig. 3 Biodistribution of [^64Cu]NOTA-pentixather at 1.5 h (tracer only, black bars, n = 5) and 24 h p.i. (grey bars, n = 6) in Daudi xenograft-bearing CB-17 SCID mice. Mice were injected with 5.2 MBq [^64Cu]NOTA-pentixather (122 pmol/0.160 μg peptide; AS = 43 GBq/μmol). Non-specific tracer accumulation was determined by coinjection of 2 mg/kg AMD3100 (50 μg/mouse; white bars, n = 3)
(§3) For PET and biodistribution studies, an average of 5.2 MBq [^64Cu]NOTA-pentixather (200 μL in PBS, 122 pmol, 160 ng) with a SA of 43 GBq/μmol was injected intravenously into the tail vein of isofluorane anaesthesized female Daudi (human B-cell lymphoma) xenograft bearing CB17 SCID mice. […] PET imaging with [^64Cu]NOTA-pentixather under ‘tracer only’ (n = 2) as well as blocking conditions (coinjection of 2 mg/kg AMD3100, n = 1) was performed at three different time points (dynamic PET imaging for 1 h, followed by static image acquisition for 15 min after 3.5 and 24 h) using an Inveon Siemens μPET scanner. PET/CT images were reconstructed by a two-dimensional ordered subset expectation maximum (2D-OSEM) algorithm with no attenuation correction. Image analysis was performed using the Inveon software, and results were calculated as %ID/g. For biodistribution studies, the mice were sacrificed at 1.5 h (n = 5) and 24 h (n = 6) p.i., tissues and organs of interest were dissected, weighed, and counted for radioactivity in a γ-counter. The percentage of injected dose per gram of tissue (% ID/g) was calculated; data are presented as mean ± SD.

[4] = system: Daudi xenograft-bearing CB-17 SCID mice; conditions: mouse, in vivo
Protocol: as §1, §2, §3

[5] = format: physicochemical; conditions: pH 7.4
Protocol: The lipophilicity and serum stability of [^64Cu]NOTA-pentixather were determined as described previously (Poschenrieder et al. [2016a]). Briefly, to a solution of app. 2 kBq of radiolabelled peptide in 500 μL of PBS (pH 7.4), 500 μL of octanol were added (n = 6). Vials were vortexed vigorously for 3 min. To achieve quantitative phase separation, the vials were centrifuged at 14,600 · g for 6 min in a Biofuge 15 (Heraeus Sepatech, Osterode, Germany). The activity concentrations in 100 μL samples of both the aqueous and the organic phase were measured in a gamma counter, and the log Pow was calculated.

| IC50 [1] | tracer remaining intact [2] | tissue uptake at 1.5 h ([3]; Tumor uptake) | tissue uptake at 1.5 h ([3]; accumulation in the intestines) | tissue uptake at 1.5 h ([3]; accumulation in the liver) | tissue uptake at 1.5 h ([3]; activity accumulation in the kidney) | tissue uptake at 1.5 h ([3]; activity in blood) | increase of t/blood ratio [4] | increase of t/intestine ratio [4] | logP [5] | Structure (SMILES) |
| --- | --- | --- | --- | --- | --- | --- | --- | --- | --- | --- |
| 64.9 ± 6.5 nM | – | – | – | – | – | – | – | – | – | CN1C(=O)[C@@H](Cc2ccc(O)c(I)c2)NC(=O)CNC(=O)[C@H](Cc2ccc3ccccc3c2)NC(=O)[C@H](CCCNC(=N)N)NC(=O)[C@H]1CCCNC(=O)c1ccc(CNC(=O)CCC(C(=O)O)N2CCN(CC(=O)O)CCN(CC(=O)O)CC2)cc1 (stereo partly shown) [NODAGA-pentixather] (cyclo([2Nal]G[dTyr(3-I)][dNMeOrn]([4Amb-NODAGA])R)) |
| – | over 90% | 13.1 ± 1.5 %ID/g | 5 ± 2.8 %ID/g | 7.2 ± 1.1 %ID/g | 3.8 ± 0.5 %ID/g | 1.1 ± 0.2 %ID/g | 1.3 fold | 2.4 fold | -1.2 | CN1C(=O)[C@@H](Cc2ccc(O)c(I)c2)NC(=O)CNC(=O)[C@H](Cc2ccc3ccccc3c2)NC(=O)[C@H](CCCNC(=N)N)NC(=O)[C@H]1CCCNC(=O)c1ccc(CNC(=O)CN2CCN(CC(=O)O)CCN(CC(=O)O)CC2)cc1 [[^64Cu]NOTA-pentixather, metal not drawn] (cyclo([dTyr(3-I)][dNMeOrn]([4Amb-NOTA])R[2Nal]G)) |
